The values that follow come from ChEMBL document CHEMBL1201862, “PubChem BioAssay data set” (2004).

Calls of active or inactive are those of the source.

Assay [1] is described as follows: inhibitors of firefly luciferase expression or activity, dose response, H4 neuroglioma cells, luminescence (AID 1990). It counts as functional, cell-based.
Assay [2] can be described thus: Luminescence Cell-Based Dose Response HTS to Identify Inhibitors of 5'UTR Stem-Loop Driven Prion Protein mRNA Translation in H4 Neuroglioblastoma Cells. [Related pubchem assays: 1827 (Project Summary), 1813 (Primary HTS)]. It is filed as functional.
Assay [3] is described as follows: inhibitors of SNCA 5'UTR-driven reporter translation, confirmation, H4 neuroglioma cells, luminescence (AID 1988). It counts as functional, cell-based.
The nature of assay [4]: cytotoxicity in HEK-293T cells, dose response, cytotoxicity control for BCR NF-kB inhibitor project, luminescence, B-cell screen hits (AID 489021).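 Note: HEK-293T cells carrying an NF-kB luciferase reporter; cells exposed to compound for about 14 hours before viability readout.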 It counts as functional, cell-based.
Assay [5] deals with T1, Sentrin-specific protease 7 (Homo sapiens, UniProt Q9BQF6).
T1 sequence (Q9BQF6 whole entry): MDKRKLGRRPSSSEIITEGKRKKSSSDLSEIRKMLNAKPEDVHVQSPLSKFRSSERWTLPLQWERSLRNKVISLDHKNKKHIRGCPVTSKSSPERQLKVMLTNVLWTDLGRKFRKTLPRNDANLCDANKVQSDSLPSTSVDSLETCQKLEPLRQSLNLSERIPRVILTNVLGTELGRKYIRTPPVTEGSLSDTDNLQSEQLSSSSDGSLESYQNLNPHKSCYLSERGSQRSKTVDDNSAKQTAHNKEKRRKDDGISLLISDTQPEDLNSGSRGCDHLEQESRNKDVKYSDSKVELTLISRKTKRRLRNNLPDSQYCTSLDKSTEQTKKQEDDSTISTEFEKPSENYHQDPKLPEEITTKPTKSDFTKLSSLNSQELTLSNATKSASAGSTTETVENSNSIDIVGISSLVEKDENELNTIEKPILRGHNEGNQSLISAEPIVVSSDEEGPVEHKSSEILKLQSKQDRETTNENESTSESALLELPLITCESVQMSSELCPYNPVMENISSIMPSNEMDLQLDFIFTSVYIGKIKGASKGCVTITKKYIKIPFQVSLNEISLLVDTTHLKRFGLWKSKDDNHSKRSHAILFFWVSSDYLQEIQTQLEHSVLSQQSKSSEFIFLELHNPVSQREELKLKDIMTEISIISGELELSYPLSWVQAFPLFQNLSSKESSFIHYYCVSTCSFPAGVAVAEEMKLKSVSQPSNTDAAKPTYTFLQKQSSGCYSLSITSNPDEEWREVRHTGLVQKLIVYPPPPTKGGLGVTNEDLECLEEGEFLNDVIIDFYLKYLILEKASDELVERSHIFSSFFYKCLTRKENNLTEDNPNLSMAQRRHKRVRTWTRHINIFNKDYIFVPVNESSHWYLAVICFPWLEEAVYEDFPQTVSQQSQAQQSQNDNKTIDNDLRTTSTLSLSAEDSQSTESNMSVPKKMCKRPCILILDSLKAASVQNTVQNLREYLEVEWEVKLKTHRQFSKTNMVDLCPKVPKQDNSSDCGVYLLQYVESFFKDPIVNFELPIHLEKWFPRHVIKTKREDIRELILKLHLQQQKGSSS
It is filed as functional.

Assay [6] deals with T2, Sentrin-specific protease 6 (Homo sapiens, UniProt Q9GZR1).
T2 sequence (Q9GZR1 whole entry): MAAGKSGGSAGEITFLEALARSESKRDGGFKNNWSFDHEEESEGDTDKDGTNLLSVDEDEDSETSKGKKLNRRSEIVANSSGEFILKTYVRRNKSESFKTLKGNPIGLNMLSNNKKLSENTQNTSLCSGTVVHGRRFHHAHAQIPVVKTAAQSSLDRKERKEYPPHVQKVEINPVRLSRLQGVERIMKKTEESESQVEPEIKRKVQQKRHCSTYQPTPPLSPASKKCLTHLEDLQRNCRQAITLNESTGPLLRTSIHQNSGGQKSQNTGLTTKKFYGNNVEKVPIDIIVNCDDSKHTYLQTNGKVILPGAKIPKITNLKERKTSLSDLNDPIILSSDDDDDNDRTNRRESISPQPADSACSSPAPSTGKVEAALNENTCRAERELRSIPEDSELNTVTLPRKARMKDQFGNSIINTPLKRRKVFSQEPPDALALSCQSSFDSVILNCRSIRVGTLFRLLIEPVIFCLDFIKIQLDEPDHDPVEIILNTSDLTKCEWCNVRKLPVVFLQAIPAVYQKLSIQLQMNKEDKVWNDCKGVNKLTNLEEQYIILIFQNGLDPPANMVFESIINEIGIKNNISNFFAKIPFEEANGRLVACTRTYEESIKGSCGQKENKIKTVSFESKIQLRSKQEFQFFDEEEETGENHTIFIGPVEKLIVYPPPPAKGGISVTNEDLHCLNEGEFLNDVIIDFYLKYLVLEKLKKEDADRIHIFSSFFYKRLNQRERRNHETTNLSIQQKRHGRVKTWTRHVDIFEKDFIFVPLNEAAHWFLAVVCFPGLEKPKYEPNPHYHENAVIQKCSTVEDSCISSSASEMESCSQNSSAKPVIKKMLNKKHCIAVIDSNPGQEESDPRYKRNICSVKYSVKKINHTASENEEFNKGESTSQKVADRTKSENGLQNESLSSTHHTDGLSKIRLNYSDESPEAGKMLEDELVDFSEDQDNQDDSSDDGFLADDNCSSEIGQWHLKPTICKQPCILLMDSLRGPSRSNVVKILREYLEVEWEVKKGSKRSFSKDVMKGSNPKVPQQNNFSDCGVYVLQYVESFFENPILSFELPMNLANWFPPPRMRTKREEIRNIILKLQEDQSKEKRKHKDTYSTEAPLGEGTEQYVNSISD
It is filed as functional.

In assay [7] the target is T3, Sentrin-specific protease 8 (Homo sapiens, UniProt Q96LD8).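 Note: luminescence read-out of SENP8 inhibition, dose-response confirmation following an ultra-high-throughput screen.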
T3 sequence (Q96LD8 whole entry): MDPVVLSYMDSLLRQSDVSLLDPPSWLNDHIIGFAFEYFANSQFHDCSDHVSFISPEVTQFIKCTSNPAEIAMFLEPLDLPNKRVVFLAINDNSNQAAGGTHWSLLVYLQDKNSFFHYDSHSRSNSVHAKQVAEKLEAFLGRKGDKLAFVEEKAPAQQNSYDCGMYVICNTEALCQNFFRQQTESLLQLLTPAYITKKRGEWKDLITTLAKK
It counts as functional.

In the next assay the target is T4, Caspase-3 (Homo sapiens, UniProt P42574).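 Note: Dose-response selectivity test against caspase-3 for candidate inhibitors of sentrin-specific proteases (SENPs).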
T4 sequence (P42574 whole entry): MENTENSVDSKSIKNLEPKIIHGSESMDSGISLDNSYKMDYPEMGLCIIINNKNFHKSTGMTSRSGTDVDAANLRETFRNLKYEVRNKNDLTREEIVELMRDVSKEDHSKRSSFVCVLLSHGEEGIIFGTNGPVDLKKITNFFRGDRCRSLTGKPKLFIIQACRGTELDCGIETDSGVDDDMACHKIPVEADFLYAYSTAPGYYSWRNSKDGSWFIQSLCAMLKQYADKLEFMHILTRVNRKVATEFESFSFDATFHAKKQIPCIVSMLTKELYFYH
It is filed as functional.

Another assay deals with Nonstructural protein 1 (Influenza A virus, UniProt Q194T2). It counts as functional, Influenza A virus (A/California/07/2009(H1N1)).
The next assay relates to H9c2. Nature of the assay: cells. It counts as functional, cell-based. Particulars: Rattus norvegicus, H9c2, Myocardium.
A further assay concerns Streptococcus. Nature of the assay: Group A Streptococcus viability loss, dose response, counter-screen for streptokinase expression inhibitor project, luminescence, BacTiterGlo (AID 1915).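 Note: potency for reduction of bacterial viability or growth.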 It is filed as functional, organism-based.
In assay [8] the test system is Streptococcus sp. 'group A'. As to the kind of experiment: growth inhibition of control SK(-) GAS strain, dose response, counter-screen for streptokinase expression inhibitor project, luminescence, kanamycin, BacTiterGlo, confirmation (AID 1900). It is filed as functional, organism-based.
The nature of assay [9]: cytotoxicity toward NIH3T3 fibroblasts, dose response, counter-screen, cell-based, ATP luminescence, mouse fibroblasts (AID 2010).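 Note: cells exposed to compound for about 90 hours before reading.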 It is filed as functional.
Assay [10] can be described thus: inhibitors of intracellular T. cruzi replication, confirmation, NIH3T3 host cells, beta-gal luminescence (AID 2044).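 Note: intracellular parasites grown in NIH/3T3 mouse fibroblasts as host cells; luminescent beta-galactosidase reporter signal from transgenic T. cruzi replicating inside host cells; inhibitors lower the luminescence signal.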 It is filed as functional, cell-based.
Assay [11] in a line: microbe, parasite or virus in culture. It is filed as functional. The conditions noted are these: Mycobacterium tuberculosis.
The test system of another assay is INS1. As to the kind of experiment: beta cell apoptosis inhibitors, cytokine rescue, dose response, luminescence, retest (AID 449756).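 Note: cell death triggered by IL-1 beta plus TNF-alpha plus IFN-gamma mixture; protective hits raise ATP signal compared with cytokine alone wells.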 It is filed as functional, cell-based. Particulars: Rattus norvegicus.
The target in assay [12] is T5, Corticotropin-releasing factor receptor 2/Corticotropin-releasing factor-binding protein (Homo sapiens, UniProt P24387+Q13324).
T5 sequence (Q13324 whole entry): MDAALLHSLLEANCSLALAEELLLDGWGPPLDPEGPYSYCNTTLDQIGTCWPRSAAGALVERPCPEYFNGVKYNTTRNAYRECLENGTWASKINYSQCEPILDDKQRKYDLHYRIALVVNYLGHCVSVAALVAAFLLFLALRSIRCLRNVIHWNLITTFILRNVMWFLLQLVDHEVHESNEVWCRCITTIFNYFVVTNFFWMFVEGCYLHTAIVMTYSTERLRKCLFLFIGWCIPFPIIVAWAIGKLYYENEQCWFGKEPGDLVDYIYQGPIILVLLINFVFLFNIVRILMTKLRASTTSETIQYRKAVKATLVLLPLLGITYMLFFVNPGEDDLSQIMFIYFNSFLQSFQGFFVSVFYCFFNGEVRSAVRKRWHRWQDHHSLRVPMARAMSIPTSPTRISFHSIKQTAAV
T5 sequence (P24387 whole entry): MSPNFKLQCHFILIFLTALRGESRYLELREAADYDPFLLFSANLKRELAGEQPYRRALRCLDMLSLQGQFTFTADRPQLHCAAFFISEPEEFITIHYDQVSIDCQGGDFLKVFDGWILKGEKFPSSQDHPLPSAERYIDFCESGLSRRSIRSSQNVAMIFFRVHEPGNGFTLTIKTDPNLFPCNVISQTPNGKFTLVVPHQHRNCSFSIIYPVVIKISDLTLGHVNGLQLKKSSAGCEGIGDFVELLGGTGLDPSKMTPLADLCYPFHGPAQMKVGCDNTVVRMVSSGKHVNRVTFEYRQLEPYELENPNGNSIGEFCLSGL
Nature of the assay: Dose Response confirmation of uHTS hits for small molecule antagonists of the CRF-binding protein and CRF-R2 receptor complex. Particulars: read-out: IC50_Mean. It counts as functional.

Assay [13] has as its target T5, Corticotropin-releasing factor receptor 2/Corticotropin-releasing factor-binding protein. As to the kind of experiment: activators of CRF receptor 2 with binding protein – uHTS hits, confirmation (AID 602473). It counts as functional. Particulars: read-out: EC50_Mean.

Nonstructural protein 1, sequence (Q194T2 whole entry): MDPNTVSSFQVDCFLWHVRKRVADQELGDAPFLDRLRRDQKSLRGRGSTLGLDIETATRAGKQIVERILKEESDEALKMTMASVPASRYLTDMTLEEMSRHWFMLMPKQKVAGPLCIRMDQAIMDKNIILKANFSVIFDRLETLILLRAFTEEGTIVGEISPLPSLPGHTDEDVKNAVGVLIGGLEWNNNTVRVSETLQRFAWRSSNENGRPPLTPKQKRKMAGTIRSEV

Take `Cc1ccc(NC(=O)C2CCC(CNc3c(N4CCC(C)CC4)c(=O)c3=O)CC2)cc1F` (centres undefined): the results for the EC50 in assay [1], in assay [2] and in assay [3] were 11.5 µM (active), > 120 µM (not active) and > 120 µM (not active), respectively. Besides, the IC50 in assay [4] was > 80 µM (inactive).
Take `COc1ccc2nc(Nc3nc4cc5c(cc4s3)OCCO5)sc2c1`: the IC50 in assay [5] is 5.81 µM (active); in [6], 66.6 µM (active); in assay [7], > 100 µM (inactive); at Caspase-3 it was 37 µM (active).
Turning to `CN(C)c1ccc([C@@H]2[C@@H]([N+](=O)[O-])[C@H]3C=Cc4ccccc4N3[C@H]2C(=O)c2ccc(Cl)cc2)cc1`, the IC50 on Nonstructural protein 1 was 26.5 µM (active).
Same read-out and setting: the same measure for `COc1ccc(Nc2ccc(S(=O)(=O)N3CCCCC3)cc2[N+](=O)[O-])cc1OC`: 28.8 µM (active).
Consider `Cc1ccc2oc(-c3ccco3)nc2c1`, for which the IC50 in assay [5] is 5.87 µM (active); in assay [6], 21.3 µM (active); in [7], > 100 µM (inactive); at Caspase-3 it was 6.87 µM (active).
As to `O=C(O)c1cc2c3ccccc3nc-2c[nH]1`, the IC50 at Nonstructural protein 1 is 5.27 µM (active).
In the case of `COC(=O)c1cc2c(-c3ccccc3)cc3ccccn3c-2c1C(=O)OC`, the IC50 on Nonstructural protein 1 was 19.2 µM (active); in the assay on H9c2 it was > 79 µM (inactive).
`COc1cccc(N=Nc2ccc3ccccc3c2O)c1`: the IC50 at Nonstructural protein 1 is 5.22 µM (active).
As a reminder, the AC50 is the concentration at which the activity in the assay is half-maximal. In the case of `Cc1ccc(C2(c3ccc(C)cc3)CC2C(=O)Nc2ccc([N+](=O)[O-])cc2O)cc1` (centres undefined), the EC50 is 10.1 µM (active) in assay [1]; 4.17 µM (active) with Streptococcus; 2.34 µM (active) in assay [8]; > 60 µM (not active) in assay [9]; 13.7 µM (active) in assay [2]; 3.31 µM (active) in assay [10]. In assay [3], the EC50 was 9.29 µM (active). Moreover, in [11], the CC50 is 3.29 µM (active). Moreover, the AC50 in the assay with INS1 is 3.61 µM (active). Also, the IC50 in assay [4] is 33.8 µM (inactive).
As for `NC(=S)NN=Cc1nccc2ccccc12`, the IC50 at Nonstructural protein 1 was 2.03 µM (active).
With `O=C(c1cc2nc(-c3ccccc3)cc(-c3ccccc3)n2n1)N1CCN(C(=O)c2ccco2)CC1`, the figures for the IC50 (in assay [12]; in the assay on H9c2; in [4]) were > 47.1 µM (inactive), > 79 µM (inactive) and 72.3 µM (inactive), respectively. The EC50 in assay [13] is > 53 µM (inactive).
On to `COc1ccccc1Nc1ncccc1[N+](=O)[O-]`, for which, at Nonstructural protein 1, the IC50 is 29.9 µM (active).
